In the supplement of paper PMC10307832:

How the values were obtained:
Test in all cases: relative viability (nuclei count vs DMSO), 5 days (fraction); higher = more cells survive
EHT 1864 + Navitoclax = compound: C1COCCN1CC2=CC(=O)C(=CO2)OCCCCCSC3=C4C=CC(=CC4=NC=C3)C(F)(F)F [EHT 1864] + CC1(C)CCC(c2ccc(Cl)cc2)=C(CN2CCN(c3ccc(C(=O)NS(=O)(=O)c4ccc(N[C@H](CCN5CCOCC5)CSc5ccccc5)c(S(=O)(=O)C(F)(F)F)c4)cc3)CC2)C1 [Navitoclax] (partner 0.5 µM)
How it was run: (§1)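 Cells from lung cancer lines were seeded into 1536-well plates and, one day later, dosed by pin tool. Treatments were either a single drug or a fixed dose of an anchor drug with five library-drug doses (not always all listed) in √10 steps. After 5 days, nuclei were stained in a one-step fixation (final 0.05% Triton X-100, 1% formaldehyde, 1 ug/ml Hoechst) and counted on 4× images, and relative viability is the treated-to-vehicle nuclei ratio, as the median of duplicate plates.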

EHT 1864 + Luminespib = compound: C1COCCN1CC2=CC(=O)C(=CO2)OCCCCCSC3=C4C=CC(=CC4=NC=C3)C(F)(F)F [EHT 1864] + CCNC(=O)c1noc(-c2cc(C(C)C)c(O)cc2O)c1-c1ccc(CN2CCOCC2)cc1 [Luminespib] (partner 0.01 µM)
How it was run: as §1

EHT 1864 + Foretinib = compound: C1COCCN1CC2=CC(=O)C(=CO2)OCCCCCSC3=C4C=CC(=CC4=NC=C3)C(F)(F)F [EHT 1864] + COc1cc2c(Oc3ccc(NC(=O)C4(C(=O)Nc5ccc(F)cc5)CC4)cc3F)ccnc2cc1OCCCN1CCOCC1 [Foretinib] (partner 0.25 µM)
How it was run: as §1

EHT 1864 + Linsitinib = compound: C1COCCN1CC2=CC(=O)C(=CO2)OCCCCCSC3=C4C=CC(=CC4=NC=C3)C(F)(F)F [EHT 1864] + C[C@]1(O)C[C@@H](c2nc(-c3ccc4ccc(-c5ccccc5)nc4c3)c3c(N)nccn32)C1 [Linsitinib] (partner 1 µM)
How it was run: as §1

Row | Cell Line | relative viability (EHT 1864 + Navitoclax; first compound 0.04 µM) | relative viability (EHT 1864 + Navitoclax; first compound 0.1265 µM) | relative viability (EHT 1864 + Navitoclax; first compound 0.4 µM) | relative viability (EHT 1864 + Navitoclax; first compound 1.265 µM) | relative viability (EHT 1864 + Navitoclax; first compound 4 µM) | relative viability (EHT 1864 + Luminespib; first compound 0.04 µM) | relative viability (EHT 1864 + Luminespib; first compound 0.4 µM) | relative viability (EHT 1864 + Luminespib; first compound 1.265 µM) | relative viability (EHT 1864 + Luminespib; first compound 4 µM) | relative viability (EHT 1864 + Foretinib; first compound 0.04 µM) | relative viability (EHT 1864 + Foretinib; first compound 0.4 µM) | relative viability (EHT 1864 + Foretinib; first compound 1.265 µM) | relative viability (EHT 1864 + Foretinib; first compound 4 µM) | relative viability (EHT 1864 + Linsitinib; first compound 0.04 µM) | relative viability (EHT 1864 + Linsitinib; first compound 0.1265 µM) | relative viability (EHT 1864 + Linsitinib; first compound 0.4 µM) | relative viability (EHT 1864 + Linsitinib; first compound 1.265 µM) | relative viability (EHT 1864 + Linsitinib; first compound 4 µM) | relative viability (EHT 1864 + Luminespib; first compound 0.1265 µM) | relative viability (EHT 1864 + Foretinib; first compound 0.1265 µM)
1 | NCI-H1734 | 0.916 | 0.828 | 0.849 | 0.867 | 0.747 | 0.242 | 0.222 | 0.182 | 0.179 | 0.911 | 0.706 | 0.961 | 0.826 | 0.867 | 0.902 | 0.863 | 0.919 | 0.77 |  | 
2 | NCI-H1755 | 1.02 | 0.927 | 0.94 | 0.979 | 0.869 | 0.618 | 0.601 | 0.42 | 0.401 | 0.914 | 0.876 | 0.844 | 0.803 | 0.983 | 0.907 | 0.956 | 0.927 | 0.962 | 0.3 | 0.872
3 | NCI-H1793 |  | 0.366 | 0.485 | 0.364 | 0.387 | 0.143 | 0.141 |  | 0.178 | 0.604 | 0.667 |  | 0.789 |  | 0.775 | 0.888 | 0.696 | 0.984 |  | 
4 | NCI-H1915 | 0.797 |  | 0.764 | 0.768 | 0.792 | 0.8 | 0.733 | 0.577 | 0.791 | 1.07 | 1 | 1.07 | 1.08 | 1.13 |  | 1.04 | 1.1 | 1.08 |  | 
5 | NCI-H1944 | 1.06 |  | 0.985 | 1.05 | 1.06 | 0.827 | 0.74 | 0.712 | 0.802 | 0.893 | 0.882 | 0.89 | 0.701 | 1.28 |  | 1.21 | 1.25 | 1.25 |  | 
6 | NCI-H1975 | 1.14 | 1.19 | 1.17 | 0.928 | 0.875 | 0.143 | 0.201 | 0.155 | 0.199 | 0.933 | 0.883 |  | 0.876 | 0.956 | 0.967 | 0.955 | 0.811 | 0.835 | 0.284 | 0.98
7 | NCI-H1993 | 0.84 | 0.697 | 0.866 | 1.08 | 0.849 | 0.737 | 0.813 | 0.865 | 0.795 | 0.741 | 0.748 | 0.75 | 0.744 | 0.735 | 0.757 | 0.709 | 0.778 | 0.695 |  | 
8 | NCI-H2009 | 1.16 | 1.15 | 1.14 | 1.11 | 0.879 | 1 | 0.979 | 0.913 | 0.789 | 1.17 | 1.22 | 1.2 | 1.07 | 1.15 | 1.2 | 1.17 | 1.24 | 0.897 | 0.926 | 1.12
9 | NCI-H2023 | 0.964 | 0.978 | 0.874 | 0.939 | 0.841 | 0.585 | 0.704 | 0.634 | 0.68 | 0.787 | 0.957 | 0.876 | 0.778 | 0.586 | 0.717 | 0.612 | 0.656 | 0.602 | 0.723 | 0.855
